# Reference: patent publication US20100144815A1, “AMINO ACID COMPOSITION” (priority 2007, published 2010)
# How the values were obtained:
# [1] = system: Mouse fibroblasts (3T3-L1 cells); assay: Inhibition of differentiation of mouse fibroblasts into adipocytes, measured as GPDH activity; assay type: cell-based; conditions: 10 μM in D-MEM medium; control without addition 370 units
# Procedure: Experiments were carried out for investigating whether the amino acid composition of the present invention is active in inhibiting the intracellular accumulation of fat granules (specifically, the ability to inhibit the induction of the differentiation of preadipocytes).
# Mouse fibroblasts (3T3-LI cells) efficiently differentiate into adipocytes in the presence of dexamethasone (DEX), isobutylmethylxanthine (IBMX), and insulin. It is known that the addition of “Wortmannin”, which is a substance that inhibits the induction of differentiation to adipocytes, inhibits differentiation into adipocytes. This inhibitory effect can be evaluated by measuring the GPDH activity.
# The GPDH activity is quantitated in terms of units where 1 unit equals 1 nmol of NADH which is oxidized for one minute in 1 mL of the culture medium for inducing the differentiation of mouse fibroblasts (3T3-LI cells) into adipocytes. A smaller value of units indicates a greater inhibitory effect on differentiation and a greater inhibition of intracellular fat granule accumulation.
# The culture medium was obtained by dissolving the same amino acid composition of the present invention as that in Example 1 into D-MEM medium (i.e. serum-containing liquid medium) to provide a concentration of 1 mass %. Almost of the all amount of the amino acid composition was dissolved well by ultrasonication. […]
# [2] = system: Mouse fibroblasts (3T3-L1 cells); assay: Fatty acid releasing activity in mouse fibroblasts differentiated to adipocytes (NEFA-C Test Wako); assay type: cell-based; conditions: 1 μM in PBS, 4 hours; triplicate; control 0.024
# Procedure: The induction of differentiation from mouse fibroblasts (3T3-L1 cells) to adipocytes was carried out in 12-well multiwell plates according to a known procedure. After treatment over about 2 weeks to induce differentiation to adipocytes, it was confirmed under a microscope that large differences in the differentiation induction activity were not present among these wells.
# […] After 4 hours, 5 μL of the PBS solution was picked up and was transferred to a 96-well multiwell plate. The amount of free-fatty acid was measured on the 96-well multiwell plate by using a NEFA-C Test Wako which is for measuring free-fatty acid.
# The principle of measuring the amount of free-fatty acid is as follows. AcylCoA is produced by the reaction between acylCoA synthetase (ACS) and free-fatty acid. The reaction of acylCoA oxidase (ACOD) with the produced acylCoA generates hydrogen peroxide, and in the presence of this hydrogen peroxide, oxidative condensation between 3-methyl-N-ethyl-N-(β-hydroxyethyl)aniline (MEHA) and 4-aminoantipyrine was done, and thereby a blue-purple dye was produced. The amount of free fatty acid can be detected by measurement Of the optimal absorbance of this blue-purple dye. A large quantity of free fatty acid indicates a high level of lipolysis and an inhibition of intracellular fat accumulation […].
# [3] = system: athletes of sports which need endurance; assay: Endurance exercise test in athletes after beverage ingestion (stationary bicycle, crossover); assay type: in vivo, human
# Procedure: The object of these experiments was 12 athletes (6 males, 6 females) of sports which need endurance (for example, cycling, rowing, or triathlon). The following (a)-(c) were evaluated for a beverage containing the amino acid composition of the present invention, water, and flavor (Example 1), a beverage containing glucose, water, and flavor (Comparative Example 1), and a beverage containing water and flavor (Comparative Example 2): (a) work done during full exercise, (b) total amount of fat oxidation during steady-state submaximal exercise, (c) changes of plasma glucagon concentration and free-fatty acid, and (d) change of blood lactate concentration.
# The test used a 3-way double-blind crossover design. The 12 athletes were divided into 6 groups. Each of the groups, which contains 2 athletes, is used in each of the following six kinds of experimental sequential procedures with 3 kinds of beverages (i.e. Example 1 and Comparative Examples 1 and 2).
# In FIG. 1, the time, when the fasting was finished, was designated as the base time (i.e. time 0). A prescribed diet and limited exercise had been done during the period from 24 hours before the base time to 12 hours before the base time; fasting was carried out in the period of from 12 hours before the base time to time 0; and the beverage (i.e. Example 1, Comparative Example 1, or Comparative Example 2) was orally ingested at 30 minutes after the finish of the fasting. After the lapse of 30 minutes after ingesting the beverage (designated as the “sample” in FIG. 1), exercise with a stationary training bicycle was performed for 85 minutes at a work load equivalent to 65% of the maximum oxygen intake (referred to below as steady-state submaximal exercise), and, after finishing steady-state submaximal exercise, as much work as possible was completed in 5 minutes on the stationary training bicycle.
compound,measurement,setting,value
"COC[C@H]1OC(=O)c2coc3c2[C@@]1(C)C1=C(C3=O)[C@@H]2CCC(=O)[C@@]2(C)C[C@H]1OC(C)=O [Comparative Example 4, Wortmannin]",GPDH activity,[1],47 units
"CC(C)NCC(O)c1ccc(O)c(O)c1 (racemic) [Comparative Example 9, dl-isoproterenol]",average value of absorbance (amount of free-fatty acid),[2],0.041
"O=C[C@H](O)[C@@H](O)[C@H](O)[C@H](O)CO [Comparative Example 1, glucose]",amount of work during the 5 minutes of full exercise (average value of the 12 participants),"[3]; 380 g beverage (6 g active) orally 30 min before 85 min steady-state submaximal exercise, then 5 min full exercise",83.3 kJ
same,total amount of fat oxidation during 85-minute steady-state submaximal exercise,[3]; beverage orally 30 min before exercise at 65% of maximum oxygen intake,49.3 g
same,concentration of lactic acid after 5-minute full exercise,"[3]; blood, after full exercise",8.8 mmol/L
same,concentration of lactic acid immediately before full exercise (after the sustained exercise period),"[3]; blood, before full exercise",1.5 mmol/L
